Experimental data published in patent US7914891B2, “Wipes including microencapsulated delivery vehicles and phase change materials” (Kimberly-Clark Worldwide, Inc., priority 2005, dated 2011).
Read-outs that look alike come from different tables or passages of the source.

Assays:
[1] = Heat generation after soaking in de-ionized water; format: physicochemical; conditions: in 7.0 grams de-ionized water; coated samples crushed after 0.5 to 2.0 hours
Protocol: To analyze the samples for heat generation, 0.80 grams of each sample of calcium chloride including a moisture protective layer was added to four separate vials each containing 7.0 grams of de-ionized water and 0.73 grams of the control sample was added to a fifth vial containing 7.0 grams of de-ionized water. Using a J type thermocouple (commercially available from Omega Engineering, Inc., Stamford, Conn.) and a data logger, the temperature of the samples was measured over a period of 180 seconds. The four vials containing the samples of microencapsulated heat delivery vehicle including a moisture protective layer were allowed to remain in the de-ionized water for 0.5 hours, 1.0 hour, 1.5 hours, and 2.0 hours, respectively, at which time the samples were activated by crushing the samples by hand using a metal rod. The temperature of the water in the four vials was measured for a period of 180 seconds after crushing the samples.

[2] = 35 wt % in mineral oil, added to 7.0 grams de-ionized water
Protocol: All five samples were then individually added to 7.0 grams de-ionized water and the resulting temperature rise was measured using a Barnant Scanning Thermocouple (available from Therm-X of California, Hayward, Calif.).
All four samples were then added to 7.0 grams de-ionized water and the resulting temperature rise was measured using a J type Thermocouple (available from Omega Engineering, Inc., Stamford, Conn.).

[3] = test system: Methicillin-resistant Staphylococcus aureus; conditions: 22° C. compared to 50° C.; 0.005% active PHMB
Protocol: This Example utilized 1.5-milliliter tubes containing a 1-milliliter blend of phosphate-buffered saline (pH 7.2) and 5% (w/v) bovine serum albumin soil. The tubes were placed in electric heat blocks set for 22° C., 30° C., 40° C. and 50° C., respectively. The tubes remained in the electric heat blocks for approximately 10 minutes.
After 10 minutes, 0.005% (by weight) active polyhexamehtylene biguanide (PHMB) (commercially available as Cosmocil® CQ from Arch Biocides, Inc., United Kingdom) was added to two tubes at each temperature level. Duplicate tubes without PHMB at each temperature were also made.
The tubes were then vortexed and Methicillin-resistant Staphylococcus aureus (approximately 1×10^5 colony forming units (CFU)) was then added to each tube. All of the tubes were then placed back into the heat blocks at their respective temperatures.
Following a 10-minute contact time, 0.1 milliliters of each sample was transferred to 0.9 milliliters letheen broth to neutralize the PHMB activity. The letheen samples were then plated in duplicate on Tryptic Soy agar plates using a WASP2 spiral plater (commercially available from Don Whitley Scientific, Ltd., Yorkshire, United Kingdom). The plates were inverted and incubated at 37±2° C. for 48 hours.
After 48 hours, the plates were evaluated using a total plate count to determine the biocidal efficacy of each sample.

[Ca+2].[Cl-].[Cl-] [Example 11 control sample, calcium chloride]
heat generation after contact with water [1]: produced heat immediately upon being introduced into water but only for a short period of time

[Ca+2].[Cl-].[Cl-] [anhydrous calcium chloride, calcium chloride]
rate of heat generation ([2]; particle size 149-355 micrometers vs four other size ranges): generated heat at the highest rate

[Cl-].[Cl-].[Mg+2] [anhydrous magnesium chloride, magnesium chloride]
rate of heat generation ([2]; particle size less than 250 micrometers vs three other size ranges): generated heat at the highest rate

polyhexamethylene biguanide [PHMB]
LOG10 difference in efficacy [3]: greater than 1.4 LOG10
